Like-named read-outs stand apart in the source and are kept apart here.
Key:
pY705-STAT3 in PBMC = biological target: T1, pY705-STAT3 in PBMC (Homo sapiens, UniProt P40763); test: MSD-pSTAT-PBMC Assay (pSTAT3, IL-6 stimulated); type: cell-based; conditions: PBMC, compound 3 hrs, then 10 ng/mL IL-6 for 10 min; Table 115; read-out: STAT3
T1 construct: Cryopreserved Peripheral Blood Mononuclear Cells (PBMC) are from AllCells; host or cells: cryopreserved PBMC
From the text: Cryopreserved Peripheral Blood Mononuclear Cells (PBMC) are from AllCells. Recombinant Human IL-4 and IL-6 are from Peprotech. Mouse monoclonal anti-STAT3 antibody, rabbit monoclonal anti-pY705-STAT3 antibody, rabbit monoclonal Anti-pY641-STAT6 antibody, and lysis buffer are from Cell Signaling Technology (CST). Mouse monoclonal anti-STAT6 antibody is from BioLegend. Assay plates, blocker, and anti-rabbit secondary antibody are from Meso Scale Discovery (MSD).
Cyropreserved PBMCs were thawed out and allowed to recover overnight in IMDM+10% heat-inactivated FBS prior to plating 50,000 (STAT3) or 25,000 (STAT6) cells per well in 96-well U-bottom tissue culture plates. Cells were treated with compound for 3 hrs, then stimulated with 10 ng/mL IL-6 (STAT3) or 1 ng/mL IL-4 (STAT6) for 10 min. Cells were then spun down and washed with ice-cold PBS prior to lysing the cell pellet with 1× lysis buffer (CST) with 1× HALT protease and phosphatase inhibitor cocktail (Thermo). Lysates were transferred to and incubated overnight at 4° C. with shaking in QuickPlex 96-well high bind assay plates (MSD) pre-coated overnight with 30 μL per well of 0.6 μg/mL mouse monoclonal anti-STAT3 antibody (STAT3) or 2 μg/mL mouse monoclonal anti-STAT6 antibody (STAT6) in 1× PBS, and pre-blocked for 1 hour with 3% Blocker-A (MSD). Captured protein in the assay plates were then washed and probed with 25 μL per well of […] rabbit monoclonal anti-pY705-STAT3 antibody (STAT3) or 0.18 μg/ml rabbit monoclonal Anti-pY641-STAT6 antibody (STAT6) in 1% Blocker-A for 1 hour at room temperature with shaking, then washed and probed with 25 ul per well of 1 ug/ml Sulfo-TAG Labeled Goat Anti-Rabbit Antibody (MSD) in 1% Blocker-A for 1 hour at room temperature with shaking. Assay plates were then washed and 150 μL of 1× Read Buffer-T (MSD) was added to each well prior to reading on an SQ120 MSD Plate Reader. Assay signal from each sample was subtracted by the signal from unstimulated control wells and normalized to DMSO control wells. IC50 values were calculated using Graph Pad Prism Dose-Response Nonlinear Regression with variable slope. For both pSTAT3 and pSTAT6 A=≤100 nM; B 100-1000 nM; C=>1000-3000 nM; D=>3 μM; and NT=Not Tested.

[1] = biological target: T2, Recombinant STAT3 protein (STAT3 (G127-I722)) (Homo sapiens, UniProt P40763); test: STAT3 Fluorescence Polarization (FP) Assay; type: binding; conditions: probe 5-FAM-GpYLPQTV-NH2 2 nM, 45-minute incubation
T2 construct: Recombinant STAT3 protein (STAT3 (G127-I722))
T2 sequence (P40763 127-722): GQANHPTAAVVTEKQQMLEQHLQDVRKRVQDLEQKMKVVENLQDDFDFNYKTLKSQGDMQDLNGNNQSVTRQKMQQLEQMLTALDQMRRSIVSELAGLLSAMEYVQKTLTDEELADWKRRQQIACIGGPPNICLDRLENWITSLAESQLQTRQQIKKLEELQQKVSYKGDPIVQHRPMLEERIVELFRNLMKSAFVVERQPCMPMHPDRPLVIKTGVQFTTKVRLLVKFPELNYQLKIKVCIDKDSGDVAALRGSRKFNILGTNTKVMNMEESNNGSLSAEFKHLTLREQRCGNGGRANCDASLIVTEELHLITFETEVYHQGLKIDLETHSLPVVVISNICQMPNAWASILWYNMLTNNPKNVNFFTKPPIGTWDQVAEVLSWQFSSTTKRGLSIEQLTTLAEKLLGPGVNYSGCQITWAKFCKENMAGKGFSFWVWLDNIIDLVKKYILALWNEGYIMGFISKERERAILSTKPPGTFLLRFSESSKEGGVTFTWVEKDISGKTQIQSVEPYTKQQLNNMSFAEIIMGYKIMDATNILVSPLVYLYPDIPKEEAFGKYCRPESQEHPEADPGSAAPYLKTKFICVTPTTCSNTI
How it was run: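 Read-out is fluorescence polarization (mP) after 45 min at room temperature, with IC50 fitted by nonlinear regression against log compound concentration. Mixture: 25 nM STAT3 (G127-I722), 2 nM 5-FAM-GpYLPQTV-NH2 phosphopeptide, 10 mM HEPES pH 7.4 buffer, 1% DMSO.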

[2] = biological target: T3, Recombinant STAT6 protein (STAT6 (W123-T658)) (Homo sapiens, UniProt P42226); test: STAT6 Fluorescence Polarization (FP) Assay; type: binding; conditions: 45-minute incubation
T3 construct: Recombinant STAT6 protein (STAT6 (W123-T658))
T3 sequence (P42226 123-658): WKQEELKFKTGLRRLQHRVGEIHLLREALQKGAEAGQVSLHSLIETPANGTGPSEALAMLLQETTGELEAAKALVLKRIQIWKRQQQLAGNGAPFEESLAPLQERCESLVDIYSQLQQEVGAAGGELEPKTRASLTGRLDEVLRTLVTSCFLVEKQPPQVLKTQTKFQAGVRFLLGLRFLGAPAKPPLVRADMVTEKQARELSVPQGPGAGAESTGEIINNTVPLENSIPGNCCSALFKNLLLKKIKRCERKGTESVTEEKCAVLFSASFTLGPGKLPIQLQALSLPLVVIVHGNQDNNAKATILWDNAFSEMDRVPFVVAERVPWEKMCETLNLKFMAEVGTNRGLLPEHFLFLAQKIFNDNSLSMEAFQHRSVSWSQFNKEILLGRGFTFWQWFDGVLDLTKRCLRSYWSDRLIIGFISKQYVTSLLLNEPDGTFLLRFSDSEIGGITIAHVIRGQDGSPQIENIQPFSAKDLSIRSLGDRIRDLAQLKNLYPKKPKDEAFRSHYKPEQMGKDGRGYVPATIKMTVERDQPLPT
How it was run: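 Competitive FP binding: recombinant STAT6 (W123-T658) at 250 nM, labeled phosphotyrosine peptide at 2 nM, compounds at 1% DMSO, 45 min at RT before reading. IC50 values were obtained from nonlinear regression of mP versus log concentration.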

[3] = STAT3 (G127-I722) 25 nM, read-out: STAT3 (FP assay IC50 class)
[4] = STAT6 (W123-T658) 250 nM, probe 5-FAM-Ap[…]-NH2 2 nM, read-out: STAT6 (FP assay IC50 class)
[5] = STAT3 25 nM, read-out: STAT3 (FP assay IC50)
[6] = STAT6 250 nM, probe 5-FAM-Ap[…]-NH2 2 nM, read-out: STAT6 (FP assay IC50)

T1 sequence (P40763 whole entry): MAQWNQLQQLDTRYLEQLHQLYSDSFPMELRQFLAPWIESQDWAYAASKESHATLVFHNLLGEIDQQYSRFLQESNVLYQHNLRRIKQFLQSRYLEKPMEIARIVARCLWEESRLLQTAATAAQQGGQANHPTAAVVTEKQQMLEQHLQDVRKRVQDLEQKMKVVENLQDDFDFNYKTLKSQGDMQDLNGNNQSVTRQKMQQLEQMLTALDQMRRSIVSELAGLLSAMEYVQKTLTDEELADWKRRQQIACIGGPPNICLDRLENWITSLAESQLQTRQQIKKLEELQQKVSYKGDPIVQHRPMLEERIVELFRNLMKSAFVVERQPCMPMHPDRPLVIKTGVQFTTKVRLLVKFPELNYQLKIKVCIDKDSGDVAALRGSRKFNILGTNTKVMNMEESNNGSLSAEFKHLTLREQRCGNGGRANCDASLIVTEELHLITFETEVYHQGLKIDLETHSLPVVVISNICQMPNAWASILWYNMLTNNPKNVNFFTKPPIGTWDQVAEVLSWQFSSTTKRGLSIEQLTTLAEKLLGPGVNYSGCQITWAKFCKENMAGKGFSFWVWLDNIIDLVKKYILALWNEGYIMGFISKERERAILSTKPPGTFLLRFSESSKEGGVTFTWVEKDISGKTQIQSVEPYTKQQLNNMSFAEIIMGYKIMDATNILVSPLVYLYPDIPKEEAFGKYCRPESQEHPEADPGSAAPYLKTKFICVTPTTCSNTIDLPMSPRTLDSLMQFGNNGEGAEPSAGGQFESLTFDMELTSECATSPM

Question: Which IC50 (pY705-STAT3 in PBMC) does the source give for `CCCOC(=O)[C@H](C)NP(=O)(Oc1ccccc1)[C@@H](F)c1ccc2sc(C(=O)N[C@H]3CCC[C@H]4CC[C@@H](C(=O)N5CC(c6cnccc6N6CCOCC6)C5)N4C3=O)cc2c1` (stereo partly drawn) [Compound 1064, propyl (((R)-fluoro(2-(((3S,6S,9aS)-3-(3-(4-morpholinopyridin-3-yl)azetidine-1-carbonyl)-5-oxooctahydro-1H-pyrrolo[1,2-a]azepin-6-yl)carbamoyl)benzo [b]thiophen-5-yl)methyl)(phenoxy)phosphoryl)-L-alaninate] here?
Answer: < 0.1 µM

Question: Which IC50 (pY705-STAT3 in PBMC) does the source give for `CCCOC(=O)[C@H](C)NP(=O)(Oc1ccccc1)[C@@H](F)c1ccc2sc(C(=O)N[C@H]3CCC[C@H]4CC[C@@H](C(=O)N5CC(c6cnccc6F)C5)N4C3=O)cc2c1` (stereo partly drawn) [Compound 994, propyl (((R)-fluoro(2-(((3S,6S,9aS)-3-(3-(4-fluoropyridin-3-yl)azetidine-1-carbonyl)-5-oxooctahydro-1H-pyrrolo[1,2-a]azepin-6-yl)carbamoyl)benzo [b]thiophen-5-yl)methyl)(phenoxy)phosphoryl)-L-alaninate] here?
Answer: 0.1 to 1 µM

Question: `CC(C)(C)C(=O)SCCOP(=O)(OCCSC(=O)C(C)(C)C)C(F)(F)c1ccc2sc(C(=O)N[C@H]3CCCC[C@H]4CC[C@@H](C(=O)NCc5cnc6[nH]cnc6c5)N4C3=O)cc2c1` [Compound 1005, S,S′-(((((2-(((3S,6S,10aS)-3-(((3H-imidazo[4,5-b]pyridin-6-yl)methyl)carbamoyl)-5-oxodecahydropyrrolo [1,2-a]azocin-6-yl)carbamoyl)benzo [b]thiophen-5-yl)difluoromethyl)phosphoryl)bis(oxy))bis(ethane-2,1-diyl)) bis(2,2-dimethyl-propanethioate)] was tested. Which IC50 (pY705-STAT3 in PBMC) did it give?
Answer: < 0.1 µM

Question: How did the IC50 (pY705-STAT3 in PBMC) turn out when `CC(C)CC(=O)SCCOP(=O)(OCOC(=O)OC(C)C)[C@H](F)c1ccc2sc(C(=O)N[C@H]3CCC[C@H]4CC[C@@H](C(=O)N5CC(c6cccnc6)C5)N4C3=O)cc2c1` (stereo partly drawn) [Compound 1096, S-(2-((((S)-fluoro(2-(((3S,6S,9aS)-5-oxo-3-(3-(pyridin-3-yl)azetidine-1-carbonyl)octahydro-1H-pyrrolo[1,2-a]azepin-6-yl)carbamoyl)benzo [b]thiophen-5-yl)methyl) (((isopropoxy-carbonyl)oxy)methoxy)phosphoryl)oxy)ethyl) 3-methylbutanethioate] was run?
Answer: < 0.1 µM

Question: Which IC50 (pY705-STAT3 in PBMC) does the source give for `CC(C)OC(=O)OCOP(=O)(Cc1ccc2[nH]c(C(=O)N[C@H]3CCC[C@H]4CC[C@@H](C(=O)N5CC(c6cccnc6)C5)N4C3=O)cc2c1)OCOC(=O)OC(C)C` [Compound 965, diisopropyl (((((2-(((3S,6S,9aS)-5-oxo-3-(3-(pyridin-3-yl)azetidine-1-carbonyl)octahydro-1H-pyrrolo[1,2-a]azepin-6-yl)carbamoyl)-1H-indol-5-yl)methyl)phosphoryl)bis(oxy))bis (methylene)) bis(carbonate)] here?
Answer: 0.1 to 1 µM

Question: How did the IC50 (pY705-STAT3 in PBMC) turn out when `CCCCOC(=O)[C@H](C)NP(=O)(Cc1ccc2sc(C(=O)N[C@H]3CCC[C@H]4CC[C@@H](C(=O)N5CC(c6ncccc6C)C5)N4C3=O)cc2c1)Oc1ccccc1` (stereo partly drawn) [Compound 288, butyl (((2-(((3S,6S,9aS)-3-(3-(3-methylpyridin-2-yl)azetidine-1-carbonyl)-5-oxooctahydro-1H-pyrrolo[1,2-a]azepin-6-yl)carbamoyl)benzo [b]thiophen-5-yl)methyl)(phenoxy)phosphoryl)-L-alaninate] was run?
Answer: 0.1 to 1 µM

Question: `O=C(N[C@H]1CCC[C@H]2CC[C@@H](C(=O)N3CC(c4nccc(O)n4)C3)N2C1=O)c1cc2cc(C(F)(F)P(=O)(O)O)ccc2s1` [Compound 809, (difluoro(2-(((3S,6S,9aS)-3-(3-(4-hydroxypyrimidin-2-yl)azetidine-1-carbonyl)-5-oxooctahydro-1H-pyrrolo[1,2-a]azepin-6-yl)carbamoyl)benzo [b]thiophen-5-yl)methyl) phosphonic acid] was tested. Which IC50 [1, 3] did it give?
Answer: < 0.1 µM

Question: What about the IC50 [2, 4] of the same compound?
Answer: 3 to 30 µM

Question: With `N#Cc1[nH]nc2ccc(NC(=O)[C@@H]3CC[C@@H]4CCCC[C@H](NC(=O)c5cc6cc(C(F)(F)P(=O)(O)O)ccc6s5)C(=O)N43)cc12` [Compound 52, ((2-(((3S,6S,10aS)-3-((3-cyano-2H-indazol-5-yl)carbamoyl)-5-oxodecahydropyrrolo [1,2-a]azocin-6-yl)carbamoyl)benzo[b]thiophen-5-yl)difluoromethyl) phosphonic acid] as the compound, how does the IC50 [1, 5] read?
Answer: 1 to 10 µM

Question: And the IC50 [2, 6]?
Answer: 0.3 to 3 µM

Question: Which IC50 [1, 3] does the source give for `COc1cc(C2CN(C(=O)C3CCC4CCCCC(NC(=O)c5cc6cc(C(F)(F)P(=O)(O)O)ccc6s5)C(=O)N43)CC2C#N)cc(C)n1` (mixture of isomers) [Compound 874, ((2-(((3S,6S,10aS)-3-((rel-trans)-3-cyano-4-(2-methoxy-6-methylpyridin-4-yl)pyrrolidine-1-carbonyl)-5-oxodecahydropyrrolo[1,2-a]azocin-6-yl)carbamoyl)benzo [b]thiophen-5-yl)difluoromethyl) phosphonic acid] here?
Answer: 1 to 10 µM

Question: What about the IC50 [2, 4] of the same compound?
Answer: 0.3 to 3 µM

Question: What does the source list for `N#C[C@@H]1CN(C(=O)[C@@H]2CC[C@@H]3CCCCC[C@H](NC(=O)c4cc5cc(C(F)(F)P(=O)(O)O)ccc5s4)C(=O)N32)C[C@H]1c1ccccc1` (mixture of isomers) [Compound 74, ((2-(((3S,6S,11aS)-3-((rel- trans)-3-cyano-4-phenylpyrrolidine-1-carbonyl)-5-oxodecahydro-1H-pyrrolo[1,2-a]azonin-6-yl)carbamoyl)benzo[b]thiophen-5-yl)difluoromethyl) phosphonic acid]?
Answer: IC50 [1, 5]: 1 to 10 µM; IC50 [2, 6]: ≤ 0.3 µM

Question: Which results are given for `N#CC1C(c2ccccc2)CN(C(=O)[C@@H]2CC[C@@H]3CCC[C@H](NC(=O)c4cc5cc([C@@H](F)P(=O)(O)O)ccc5s4)C(=O)N32)C12CC2` (stereo in doubt) [Compound 921, ((S)-(2-(((3S,6S,9aS)-3-((6R,7S)-7-cyano-6-phenyl-4-azaspiro[2.4]heptane-4-carbonyl)-5-oxooctahydro-1H-pyrrolo[1,2-a]azepin-6-yl)carbamoyl)benzo [b]thiophen-5-yl)fluoromethyl) phosphonic acid]?
Answer: IC50 [1, 3]: 1 to 10 µM; IC50 ([2]; STAT6 (W123-T658) 250 nM, probe 5-FAM-ApYKPFQDLI-NH2 2 nM, read-out: STAT6 (FP assay IC50 class)): ≤ 0.3 µM

Question: Which results are given for `CO[C@@H]1CC[C@@H](NC(=O)[C@@H]2CC[C@@H]3CCC[C@H](NC(=O)c4cc5cc(C(F)P(=O)(O)O)ccc5s4)C(=O)N32)C1` (stereo partly drawn) [Compound 536, (fluoro(2-(((3S,6S,9aS)-3-(((1R,3R)-3-methoxycyclopentyl)carbamoyl)-5-oxooctahydro-1H-pyrrolo[1,2-a]azepin-6-yl)carbamoyl)benzo[b]thiophen-5-yl)methyl)phosphonic acid]?
Answer: IC50 [1, 3]: 1 to 10 µM; IC50 [2, 4]: 3 to 30 µM
